We go through ten compounds from BindingDB's records for doi:10.1021/jm500629e (Mcgill University, 2014).

In this assay the target is T1, Farnesyl pyrophosphate synthase (Homo sapiens, UniProt P14324).
T1 sequence (P14324 whole entry): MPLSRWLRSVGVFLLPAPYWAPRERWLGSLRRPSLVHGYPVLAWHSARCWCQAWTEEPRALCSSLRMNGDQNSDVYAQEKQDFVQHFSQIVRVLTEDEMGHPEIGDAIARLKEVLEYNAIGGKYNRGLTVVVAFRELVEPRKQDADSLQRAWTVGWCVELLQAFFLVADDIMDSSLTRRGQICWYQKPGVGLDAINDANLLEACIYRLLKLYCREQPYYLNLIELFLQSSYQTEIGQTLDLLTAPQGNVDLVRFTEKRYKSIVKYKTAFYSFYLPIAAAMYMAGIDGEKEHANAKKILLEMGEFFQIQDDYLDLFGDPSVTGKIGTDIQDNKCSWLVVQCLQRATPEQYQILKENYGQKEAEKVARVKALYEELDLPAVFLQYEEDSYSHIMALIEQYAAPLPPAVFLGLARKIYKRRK
Briefly: Inhibition of FPPS (unknown origin).
In turn, `Cc1ccc(-c2cc3c(NCP(=O)(O)O)ncnc3s2)cc1` yielded an IC50 of 4500 nM. In turn, `Cc1ccc(-c2cc3c(NCCP(=O)(O)O)ncnc3s2)cc1` displayed an IC50 of 200 nM.

In turn, `Cc1ccc(-c2cc3c(CCP(=O)(O)O)ncnc3s2)cc1` gave a half-inhibitory concentration (IC50) of 200 nM. With `Cc1ccc(-c2cc3c(NCC(=O)O)ncnc3s2)cc1`, the IC50 was over 20000 nM.

Regarding `Cc1ccc(-c2cc3c(NCP(=O)(O)O)ncnc3s2)cc1Cl`, the IC50 came out at 3300 nM. As for `Cc1ccc(-c2cc3c(NC(c4ccccc4)P(=O)(O)O)ncnc3s2)cc1Cl` (stereo not given), it took 1200 nM to reach half-maximal inhibition (IC50). `O=P(O)(O)CCc1cccnc1` had an IC50 of 200 nM. `Cc1ccc(-c2cc3c(NC(P(=O)(O)O)P(=O)(O)O)ncnc3s2)cc1` displayed an IC50 of 200 nM. The compound `O=P(O)(O)C(Nc1ncnc2sc(-c3ccc(OC4CC4)cc3)cc12)P(=O)(O)O` gave an IC50 of 200 nM. Compound `O=P(O)(O)C(Cc1cccnc1)P(=O)(O)O` [(1-phosphono-2-pyridin-3-yl-ethyl)-phosphonic acid] had an IC50 of 200 nM.

As a reminder, the IC50 is the concentration that inhibits the measured activity by half. The low end stands for higher potency, the high end for lower potency.
